Entries after “also recorded” stand apart in the source; their conditions may differ.

What all share (type): cell-based
Assay [1] concerns MelanoDerm equivalents. As to the kind of experiment: Pigmentation in melanocyte-containing epidermal equivalents. To be noted: keratinocyte-melanocyte contact. The method, then:
(§1) Since PAR-2 is expressed in keratinocytes, but not in melanocytes, the possible requirement of keratinocyte-melanocyte contact was tested for the effect of Compound I and SLIGRL on melanosome phagocytosis by the keratinocytes. Primary melanocyte cultures (commercially available from Clonetics, San Diego) were plated under epidermal equivalents (EpiDerm, of MatTek, Ashland, Mass.) to create an equivalent-monolayer co-culture with no contact between keratinocytes and melanocytes. These co-cultures were compared to MelanoDerm equivalents (of MatTek), where melanocytes are present in the basal layer of the equivalent. Cultures were treated with Compound I, with the […], and with the PAR-2 agonist SLIGRL. As set forth in Table 3, keratinocytes are indicated by “K”, melanocytes are indicated by “M”, and lack of keratinocyte-melanocyte contact is indicated as “no K-M cont”. […] The same result was also observed with monolayer keratinocyte/melanocyte co-cultures having keratinocyte/melanocyte contact.

The subject of assay [2] is monolayer keratinocyte/melanocyte co-cultures. As to the kind of experiment: Pigmentation in monolayer keratinocyte/melanocyte co-cultures (K-M contact). The settings on record: keratinocyte-melanocyte contact. The method, then: as §1
In assay [3] the test system is human primary keratinocytes. Briefly: Fluorescent microsphere ingestion by human primary keratinocytes. To be noted: treated two days; Compound I 1μM, SLIGRL 10μM; vs vehicle control; FIG. 1. The method, then: In order to study the role of the PAR-2 pathway in phagocytosis, several in vitro model systems were used. One system used contained primary human keratinocytes or a human keratinocyte cell line. In this and a number of following examples, cells were treated with test compounds for different amounts of time (from one hour to three days), and samples were then incubated with fluorescent microspheres for two hours. The beads ingested by the cells were photographed using fluorescence microscopy.
In this example, human primary keratinocytes or the human keratinocyte cell line HaCaT were used as in vitro model systems to study the effect of PAR-2 regulators on keratinocyte phagocytosis. The human primary keratinocytes used are commercially available from Clonetics (San Diego, Calif.). Cells were plated on chamber slides, at 2 chambers/slide and 60,000 cells/chamber. […]
Microspheres were also found around the cell, probably because they are non-specifically attached to extracellular-matrix components secreted by the cell. The quantity of the microspheres ingested was changed with the treatments.

The subject of assay [4] is Human keratinocytes. Briefly: Timing of effect on keratinocyte microsphere phagocytosis. The arrangement: key: +: Plus signs indicate an effect on phagocytosis; −: minus signs indicate no effect on phagocytosis; −/+: plus/minus signs indicate a marginal effect on phagocytosis. To be noted: effect = decrease for Compound I, increase for SLIGRL. The procedure: In this example, human primary keratinocytes or the human keratinocyte cell line HaCaT were used as in vitro model systems to study the effect of PAR-2 regulators on keratinocyte phagocytosis. The human primary keratinocytes used are commercially available from Clonetics (San Diego, Calif.). Cells were plated on chamber slides, at 2 chambers/slide and 60,000 cells/chamber. Cells were treated once daily, for two or three days, with Compound I (1μM), SLIGRL (10μM), or vehicle (Phosphate-buffered saline, (“PBS”) from Gibco-BRL (Gaithersburg, Md.). After two or three days of exposure to the test compounds, cells were exposed to Nile-red or FITC fluorescent microspheres, 1 μm in diameter, 50 microspheres/cell, for two hours at 37° C. Microspheres were from Molecular Probes (Eugene, Oreg.), and were processed according to manufacturer's instructions. Following that treatment, cells were incubated with 15% Fetal Bovine Serum (“FBS”, from Gibco-BRL), for 15 minutes at 37° C. and rinsed with PBS. At that time, chambers were separated from the slides, and the slides were covered with glycerol and coverslips. Fluorescent microscopy was performed using a Zeiss Axiovert 35 or a Nikon Optiphot-2 microscope.
Human keratinocytes were treated with Compound I or SLIGRL for periods of time ranging from one hour to two days. At the end of the treatment period, the cells were treated with microspheres as described in Example 1. […] Plus signs indicate an effect on phagocytosis, minus signs indicate no effect on phagocytosis, and plus/minus signs indicate a marginal effect on phagocytosis. The effects measured were a decrease for Compound I and an increase for SLIGRL. […] This implies that the PAR-2 signaling results in new protein synthesis, a reduction in protein synthesis when a turnover time is required to eliminate the existing relevant protein(s), or a rearrangement of proteins (as occurs in the reorganization of cytoskeletal components).

The test system of assay [5] is Keratinocytes. Briefly: Scanning electron microscopy of keratinocyte podia. The settings on record: treated two days; vs vehicle-treated controls; FIG. 8. The procedure: PAR-2 Effect on Phagocytosis and Migration Relates to Changes in Cell Shape Both phagocytosis and cell migration involve changes in cell shape. Therefore, the effect of the PAR-2 pathway reagents on cell podia were studied using scanning electron microscopy. Keratinocytes were treated with Compound I (identified as “SH00230”), SLIGRL and a buffer vehicle for two days, and then processed for SEM using standard techniques. […] In other words, the cells' “fingers” are shorter and malformed, so they cannot grasp objects as well as can the control cells. […] In other words, these cells have a greater probability for productive interaction with particles. Comparing these SEM pictures in FIG. 8, it is clear that SLIGRL-treated cells have a greater ability to interact with particles, while Compound I-treated cells are less suited for such a task.

The subject of assay [6] is Human PMN cells. Briefly: PMN chemotactic migration towards FMLP, Boyden chamber. The settings on record: cells counted at 115 microns; PMN pretreated with 5 or 0.5 mg/ml STI or 1 or 0.1 μM Compound I; buffer without FMLP: 19 at 80 μ. The method, then:
Since ICAM-1 is involved in cell migration, cell migration towards a chemotactic peptide was studied in cells treated with Compound I and STI. Human PMN cells were placed in one side of a Boyden chamber, using standard techniques, and a chemotactic peptide (FMLP) was placed in the other chamber. Cells were allowed to migrate into the second chamber, and the number of migrating cells per field and distance of migration were calculated. The experiment was repeated with PMN cells pretreated with one of the following: 5 or 0.5 mg/ml STI, 1 or 0.1 μM Compound I, a buffer vehicle, and with and without chemotactic peptide. The number of cells per field that migrated the same distance as the untreated control was measured. Without the peptide and with no treatment, an average of 19 cells/field were migrating a distance of 80 microns. […] In other words, no cells (or less than 5/field) were identified at 115 microns. […] The ability to inhibit PMN migration is an important constituent of anti-inflammatory compounds.

For SLIGRL [reference compound], the “level of pigmentation, Epidermal Equivalents (K-M cont.)” value in assay [1] is reported as “induced pigmentation; also recorded: darkening”. Moreover, in assay [2], the “level of pigmentation, Mono-Layer Co-Cultures (K-M cont.)” value is listed as “darkening”. The “quantity of ingested microspheres” value in assay [3] is reported as “dramatic increase in the number of ingested microspheres”. Besides, the effect on phagocytosis entry in assay [4] (1 hour of treatment) is “−”; in assay [4] (2 hours of treatment) it was “−”; in assay [4] (4 hours of treatment), “−”; in assay [4] (6 hours of treatment), “−”; in assay [4] (8 hours of treatment) it was “−/+”; in assay [4] (16 hours of treatment), “+”. For the same molecule, the effect on phagocytosis entry in assay [4] (24 hours of treatment) and in assay [4] (48 hours of treatment) was “+” in each case. Also, the “shape of cell podia” value in assay [5] is “podia were increased in number, were somewhat longer, and were much thinner”.

As for `CN[C@H](Cc1ccccc1)C(=O)N1CCCC1C(=O)N[C@@H](CCCNC(=N)N)C(=O)c1nc2ccccc2s1` (stereo partly drawn) [Compound I, (S)-N-Methyl-D-phenylalanyl-N-[4-[(aminoiminomethyl)amino]-1-(2-benzothiazolylcarbonyl)butyl]-L-prolinamide], the “level of pigmentation, Epidermal Equivalents (K-M cont.)” value in assay [1] is “reduced; also recorded: lightening”. In addition, the “level of pigmentation, Mono-Layer Co-Cultures (K-M cont.)” value in assay [2] is reported as “lightening”. Further, the “quantity of ingested microspheres” value in assay [3] is recorded as “dramatic reduction in the quantity of ingested microspheres”. In addition, the Cells/Field in assay [6] is on record as less than 5 cells/field. For the same molecule, the effect on phagocytosis entry in assay [4] (1 hour of treatment) was “−”; in assay [4] (2 hours of treatment) it was “−”; in assay [4] (4 hours of treatment), “−”; in assay [4] (6 hours of treatment), “−”; in assay [4] (8 hours of treatment) it was “−/+”; in assay [4] (16 hours of treatment), “+”. For the same molecule, the effect on phagocytosis entry in assay [4] (24 hours of treatment) and in assay [4] (48 hours of treatment) was “+” each time. The “shape of cell podia” value in assay [5] is listed as “dramatically shorter podia”.

B1: STI: Soybean trypsin inhibitor, a serine protease inhibitor capable of affecting the PAR-2 pathway (protein, UniProt P01070 25-205, looked up)
Trypsin inhibitor A: DFVLDNEGNPLENGGTYYILSDITAFGGIRAAPTGNERCPLTVVQSRNELDKGIGTIISSPYRIRFIAEGHPLSLKFDSFAVIMLCVGIPTEWSVVEDLPEGPAVKIGENKDAMDGWFRLERVSDDEFNNYKLVFCPQQAEDDKCGDIGISIDHDDGTRRLVVSKNKPLVVQFQKLDKESL
As for B1, in assay [6], the Cells/Field is given as less than 5 cells/field.

(Values after patent US20020197244A1, “Compositions and methods for regulating phagocytosis and ICAM-1 expression” (priority 1998, published 2002).)
